Data set [1] deals with A549. The data set is described as follows: In vitro cell growth inhibition, resazurin viability assay. In kind it is cell-based, human. On the procedure:
(§1) All the cell lines used in this paper were of human origin and purchased from the American Type Culture Collection (ATCC, Manassas, VA, USA). Colon adenocarcinoma (HT-29), non-small cell lung carcinoma (A549), cervix carcinoma (HeLa) and breast adenocarcinoma (MDA-MB-231) cells were grown in RPMI (HT29) or DMEM (A549, HeLa, MDA-MB-231) medium (Gibco, Milano, Italy). Both media were supplemented with 115 units/mL of penicillin G (Gibco, Milano, Italy), 115 μg/mL of streptomycin (Invitrogen, Milano, Italy) and 10% fetal bovine serum (Invitrogen, Milano, Italy). All cell lines were grown at 37 °C in a humidified 5% CO2 atmosphere. The cells were grown in 2 mL of complete medium.
(§2) Stock solutions were prepared for each compound by dissolving in DMSO at the final concentration of 10 mM.
(§3) The cells were seeded in 96-well plates at the appropriate density for each cell line. The respective cell line densities used for the antiproliferative assay were HeLa and HT29 5000 cells/well, A549 4000 cells/well and MDA-MB-231 7000 cells/well. The total volume of medium was 100 µL. After 24 h, the cells were treated by performing serial 5-fold dilutions of the tested compounds starting from a concentration of 10 μM. All experimental conditions were tested in triplicate for statistical analysis. After 72 h of incubation, 10 μL of 100 μg/mL resazurin solution was added to each well and the plate was re-incubated for 3–4 h. The fluorescence of the wells in each plate was monitored using a Spark 10M spectrophotometer (Tecan Group Ltd., Mannedorf, Switzerland) with a 535 nm excitation wavelength and a 600 nm emission wavelength.

Data set [2] relates to HT29. The description is as above. In kind it is cell-based, human. On the procedure: as §1, §2, §3
The test system of data set [3] is HeLa. The description is as above. Format: cell-based, human. On the procedure:
as §1, §2, §3

Data set [4] concerns MDA-MB-231. The description is as above. Format: cell-based, human. On the procedure: as §1, §2, §3
The subject of data set [5] is MDA-MB-231, HeLa, A549 and HT-29 cancer cell lines. The data set is described as follows: Antiproliferative activity stated across the panel of cancer cell lines. Format: cell-based, human. To be noted: for IC50: Homo sapiens. On the procedure: as §1, §2, §3
For data set [6], the system named is Bovine brain tubulin. Kind of data set: Inhibition of tubulin polymerization (turbidimetric assembly assay). In kind it is biochemical. Here is the method:
Bovine brain tubulin was purified as described previously. To evaluate the effects of the compounds on tubulin assembly in vitro [80], varying concentrations were preincubated with 10 μM tubulin in 0.8 M monosodium glutamate (pH 6.6) at 30 °C and the reaction mixtures then cooled to 0 °C. After addition of GTP, the mixtures were transferred to 0 °C cuvettes in Beckman Coulter (Brea, CA, USA) DU-7400/DU-7500 recording spectrophotometers equipped with electronic temperature controllers and warmed to 30 °C, and the assembly of tubulin was observed turbidimetrically. […] Inhibition of colchicine binding to tubulin was measured as described before, except that the reaction mixtures contained 0.5 μM tubulin and 5 μM each of [^3H]colchicine and test compound. Only one DEAE-cellulose filter was used per sample, and filtration was by gravity.
Bovine brain tubulin (see ref. [79] for details of purification) was used to examine effects on tubulin polymerization and colchicine binding. Briefly, in the polymerization experiments, different compound concentrations were preincubated with 10 µM tubulin for 15 min at 30 °C and cooled on ice. After GTP was added to each reaction mixture, the samples were transferred to 0 °C cuvettes in recording spectrophotometers with electronic temperature controllers. The temperature was raised to 30 °C over about 30 s, and turbidity development was followed for 20 min at 350 nm. […] In the current studies, [^3H]colchicine (from American Radiolabeled Corp., St. Louis, MO) binding was measured after 10 min at 37 °C. Reaction mixtures contained 0.5 µM tubulin and 5.0 µM each of the [^3H]colchicine and the potential inhibitor, and a single DEAE-cellulose filter was used for each sample, with gravity filtration.

In data set [7] the test system is HeLa cells. The data set is described as follows: Apoptosis assay, annexin-V-FITC/PI flow cytometry. Format: cell-based, human. On the procedure:
The quantification of the apoptosis induced by the test compounds was carried out by flow cytometric analysis using the Annexin-V Fluos kit (Roche Diagnostics, Rotkreuz, Switzerland) following the manufacturer’s instructions. The HeLa cells treated with the test compounds for different incubation times and at the indicated concentrations were then labeled with annexin V/FITC and PI and analyzed with Coulter Cytomics FC500 (Beckman Coulter) in the FL1 and FL3 channel, respectively.
For orientation: In flow cytometry, cells or beads pass a laser one at a time.

Data set [8] concerns ATR. The data set is described as follows: Western blot analysis. The following applies: HeLa, 24 h. In kind it is cell-based, human. On the procedure: (§4) Hela cells treated with the test compounds were harvested by centrifugation and then lysed with 0.1% (v/v) Triton X-100 containing RNase A at 0 °C. The protein content of the solutions was measured and analyzed as described previously. The antibodies directed against cyclin B, cdc2 (Y15), ATR,Bcl-2, cleaved caspase-9 (D330) and actin were purchased from Cell Signaling. The membranes were visualized using ECL select (GE Healthcare, Uppsal, Sweden), and images were acquired using an Uvitec-Alliance imaging system.
On the technique in general: A western blot detects proteins with antibodies after separation by electrophoresis.

The subject of data set [9] is Bcl-2. The data set is described as follows: Western blot analysis. Format: cell-based, human. To be noted: HeLa, 24 h. Here is the method: as §4
For data set [10], the system named is cdc2 (Y15). Kind of data set: Western blot analysis. To be noted: HeLa, 24 h. In kind it is cell-based, human. On the procedure: as §4
Data set [11] concerns cleaved caspase-9 (D330). The data set is described as follows: Western blot analysis. The following applies: HeLa, 24 h, 25 and 50 nM. In kind it is cell-based, human. Here is the method:
as §4

Data set [12] has as its system cyclin B. The data set is described as follows: Western blot analysis. Format: cell-based, human. To be noted: HeLa, 24 h. On the procedure: as §4
The test system of data set [13] is Wild-type AB zebrafish embryos. Kind of data set: Drug toxicity assessment on zebrafish embryos. In kind it is in vivo, Zebrafish (Danio rerio). The following applies: 6 hpf to 72 hpf. On the procedure: Zebrafish (Danio rerio) were obtained, staged and raised as described previously and maintained according to the OPBA of the Istituto di Ricerca Pediatrica guidelines. All procedures were conducted following the recommendations and the guidelines of the Animal Use Ethics Committee concerning the protection of animals used for scientific purposes.
Wild-type AB zebrafish embryos were treated with chemicals from shield stage (6 hpf) to larval stage (72 hpf) in a 12-well plate, by adding 20 larvae/well for each experimental condition. The zebrafish embryos were treated with compound 3d at the concentration of 30 nm and 300 nM. These concentrations were selected on the basis of the IC50 found above in HeLa cells. The drugs were added directly to the fish water diluted directly from the stock solution in DMSO. […] Subsequently, the treated embryos were kept at a constant temperature (28.5 °C). Embryos are monitored daily through a stereo microscope (Nikon SMZ745T; Nikon, Japan) and the morphological changes as well as the number of dead embryos were evaluated and recorded.

Where two headings read alike, the source gives them in different places.

Take `COc1cc(-c2ccnc3nc(Nc4ccc(C)cc4)nn23)cc(OC)c1OC` [Compound 3d, N-(p-Tolyl)-7-(3,4,5-trimethoxyphenyl)-[1,2,4]triazolo[1,5-a]pyrimidin-2-amine]: the “fold more potent than CA-4” value in [1] (A549 cells) was found to be 4 fold. Besides, the IC50 in [1] (Homo sapiens, A549, 72 h, resazurin, mean ± SE) is 0.043 ± 0.024 µM; in data set [2] (Homo sapiens, HT-29, 72 h, resazurin, mean ± SE), 0.03 ± 0.003 µM; in data set [3] (Homo sapiens, 72 h, resazurin, mean ± SE), 0.038 ± 0.009 µM; in data set [4] (Homo sapiens, MDA-MB-231, 72 h, resazurin, mean ± SE), 0.43 ± 0.11 µM; in data set [5] (in the four tumor cell lines examined, read-out: IC50s, range), 30 to 430 nM; in data set [5] (on HeLa, A549 and HT-29 cancer cells, read-out: IC50 values, range), 30 to 43 nM. Also, the IC50 in data set [6] (tubulin at 10 μM, 20 min incubation, read-out: Tubulin Assembly IC50 ± SD) turned out to be 450 ± 100 nM. Also, the “fold greater activity than CA-4” value in [2] (HT-29 cells) amounted to 100 fold. Besides, the “fold less potent than CA-4” value is reported as 10 fold in [3] (HeLa cells) and 100 fold in data set [4] (MDA-MB-231 cells). Moreover, the “fold less active than 2a as antiproliferative agent” value in [5] (HeLa, HT-29 and A549 cells) is listed as 1-2 fold. The “fold more potent than the 7-(3′,4′,5′-trimethoxyanilino) counterpart” value in data set [5] (antiproliferative agent) is 4–30 fold. In addition, the “fold more active than CA-4 as inhibitor of tubulin assembly” value in [6] amounted to 2 fold. Moreover, the “fold more potent than 2a as inhibitor of tubulin assembly” value in data set [6] was about 2 fold. Also, in [7] (50 nM, long incubation times), the “necrotic cells (A−/PI+)” value was “about 25%”. Also, in [7] (HeLa, 24 or 48 h), the induction of apoptosis entry was “induced, in a concentration- and time-dependent manner, apoptosis”. In addition, in [8], the “ATR phosphorylation (Ser428)” value is “considerable increase in ATR phosphorylation (Ser428)”. Besides, in data set [9], the Bcl-2 expression entry was “reduction in Bcl-2 expression starting at 10 nM”. Also, the “cdc2 phosphorylation (Y15)” value in [10] is on record as “significant reduction in cdc2 phosphorylation (Y15)”. Also, in [11], the caspase-9 cleavage result is given as “appearance of the cleaved fragment of caspase-9”. Also, the “cyclin B expression” value in data set [12] is listed as “increase in cyclin B expression”. Further, the “toxicity to zebrafish embryos” value was “no morphological abnormalities or embryonic lethality” in [13] (30 nM in fish water) and “small yolk sac edema in the majority of 48 hpf embryos” in [13] (300 nM in fish water, edema re-absorbed within the next 24 h).
